Test results as given in patent US20210340178A1, “NONAPEPTIDE PREVENTING INCREASED HYPERPERMEABILITY OF VASCULAR ENDOTHELIUM” (FEDERALNOYE GOSUDARSTVENNOE BUDGETNOE UCHREZHDENIE …, priority 2018, published 2021).
“Also recorded” adds a separate entry of the source. Non-standard residues stand in square brackets, D forms with d. Residues, ends and D or L forms follow the SMILES beside them.

Tested on: myosin regulatory light chain (RLC) phosphorylation in EA.hy926 endothelial cells
Assay: Thrombin-induced myosin RLC phosphorylation in endothelial cells (immunoblotting)
Assay type: cell-based
Conditions: peptide 100 μM, 1 hr; thrombin 100 nM, 20 min
Method: FIG. 4. Inhibition of the thrombin-induced RLC phosphorylation in EA.hy926 endothelial cells by PIK2, PIK7 ([D-Lys^12]-MLC11-19), or MLC11-19 MLCK peptide inhibitors. Inhibitors were added up to 100 μM, n=3-5. p<0.05 for PIK2, PIK7 vs control (0, 20 min). p<0.05 for PIK2 vs PIK7 (0, 20 min).
Inhibitory effects of the claimed peptide (PIK7), its prototype (PIK2), and analogue (MLC11-19) were compared in an assay of myosin regulatory light chain (RLC) phosphorylation in vitro as described in Example 4.
Antagonistic effects of MLCK peptide inhibitors on the thrombin-mediated RLC phosphorylation in EA.hy926 endothelial cells were tested as follows. The cells were grown in 35-mm dishes in DMEM at 37° C. and the 5% CO2 atmosphere until the monolayer formed. Then, the cells were serum-starved while simultaneously incubated with 100 μM MLCK inhibitors at 37° C., 5% CO2 for 1 hr (control, 0 min). Next, the cells were stimulated with 100 nM thrombin for 20 min and collected on ice, i.e. the medium was decanted, the cells were washed with cold PBS and lysed with 100 μL of Laemmli denaturing electrophoresis buffer. The sample proteins were separated by SDS-PAGE and proceeded to immunoblotting with anti-total, anti-monophosphorylated, and anti-diphosphorylated RLC. […]

C[C@H](NC(=O)[C@H](C)NC(=O)[C@H](CCCNC(=N)N)NC(=O)[C@@H](CCCCN)NC(=O)[C@@H](N)CCCCN)C(=O)N[C@@H](CCCNC(=N)N)C(=O)N[C@@H](C)C(=O)N[C@H](C(=O)N[C@@H](CO)C(N)=O)[C@@H](C)O [PIK7, H-Lys-D-Lys-Arg-Ala-Ala-Arg-Ala-Thr-Ser-NH2] (H-K[dK]RAARATS-NH2)
inhibition of thrombin-induced RLC phosphorylation: inhibited myosin RLC phosphorylation in endothelial cells with efficacy higher than that of either the prototype, PIK2, or the analogue, MLC11-19; also recorded: inhibits RLC phosphorylation in endothelial cells and its efficacy is superior to both the prototype, PIK2, and the analogue, MLC11-19
